Measured values published in ChEMBL document CHEMBL5653631, “A Potent and Selective ULK1 Inhibitor Suppresses Autophagy and Sensitizes Cancer Cells to Nutrient Stress” (iScience, 2018).
Values belong to the compound of their own block, whether it stands above or below them.

Experiments:
[1] = biological target: Fibroblast growth factor receptor 3 (Homo sapiens) (UniProt P22607); assay: Inhibition of human recombinant FGFR3 at 500 nM related to control ULK1
[2] = biological target: Serine/threonine-protein kinase Chk2 (Homo sapiens) (UniProt O96017); assay: Inhibition of human recombinant CHK2 at 500 nM in presence of ATP by radiometric assay relative to control
Serine/threonine-protein kinase Chk2 (Homo sapiens), sequence (O96017 whole entry): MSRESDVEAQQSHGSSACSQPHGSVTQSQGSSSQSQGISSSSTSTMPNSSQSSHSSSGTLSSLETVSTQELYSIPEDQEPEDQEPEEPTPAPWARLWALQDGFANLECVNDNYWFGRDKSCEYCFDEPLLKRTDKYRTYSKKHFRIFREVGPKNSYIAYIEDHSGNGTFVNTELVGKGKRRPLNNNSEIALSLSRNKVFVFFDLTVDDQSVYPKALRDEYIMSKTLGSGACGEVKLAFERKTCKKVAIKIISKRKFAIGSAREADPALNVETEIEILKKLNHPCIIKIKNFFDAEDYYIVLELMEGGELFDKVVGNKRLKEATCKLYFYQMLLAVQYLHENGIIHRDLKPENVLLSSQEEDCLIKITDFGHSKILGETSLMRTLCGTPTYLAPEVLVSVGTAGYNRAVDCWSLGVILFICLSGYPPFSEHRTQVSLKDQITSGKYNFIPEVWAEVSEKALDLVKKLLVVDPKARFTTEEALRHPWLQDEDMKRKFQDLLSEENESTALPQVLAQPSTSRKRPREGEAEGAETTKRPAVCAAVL

[3] = biological target: T1, Ephrin type-B receptor 1 (Homo sapiens) (UniProt P54762); assay: Inhibition of human recombinant EphB1 at 500 nM in presence of ATP by radiometric assay relative to control
T1 sequence (whole entry): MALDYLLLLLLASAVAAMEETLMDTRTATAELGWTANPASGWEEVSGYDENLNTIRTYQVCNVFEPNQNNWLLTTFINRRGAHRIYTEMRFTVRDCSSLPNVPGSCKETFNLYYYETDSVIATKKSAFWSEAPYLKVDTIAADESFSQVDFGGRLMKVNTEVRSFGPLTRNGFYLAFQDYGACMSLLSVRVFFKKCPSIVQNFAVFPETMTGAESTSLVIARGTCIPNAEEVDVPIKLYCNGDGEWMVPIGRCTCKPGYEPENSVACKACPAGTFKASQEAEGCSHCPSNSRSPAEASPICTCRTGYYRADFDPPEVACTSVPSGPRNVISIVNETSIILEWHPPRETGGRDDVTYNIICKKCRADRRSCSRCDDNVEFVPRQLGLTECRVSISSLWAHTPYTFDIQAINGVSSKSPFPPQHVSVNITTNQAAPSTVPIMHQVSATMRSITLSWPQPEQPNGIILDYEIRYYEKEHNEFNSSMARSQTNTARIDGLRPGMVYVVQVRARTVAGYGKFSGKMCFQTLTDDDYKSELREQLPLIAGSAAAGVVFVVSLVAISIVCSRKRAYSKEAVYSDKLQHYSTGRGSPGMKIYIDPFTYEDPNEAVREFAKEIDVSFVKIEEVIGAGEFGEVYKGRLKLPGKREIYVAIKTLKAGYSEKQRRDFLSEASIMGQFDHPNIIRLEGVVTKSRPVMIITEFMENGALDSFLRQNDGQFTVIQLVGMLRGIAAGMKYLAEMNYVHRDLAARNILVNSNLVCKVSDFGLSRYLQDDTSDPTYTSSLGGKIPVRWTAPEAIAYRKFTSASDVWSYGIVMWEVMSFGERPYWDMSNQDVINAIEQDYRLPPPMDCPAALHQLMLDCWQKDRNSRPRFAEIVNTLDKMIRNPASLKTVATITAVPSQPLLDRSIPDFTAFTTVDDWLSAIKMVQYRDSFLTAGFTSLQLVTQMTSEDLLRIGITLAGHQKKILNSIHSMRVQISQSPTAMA

[4] = biological target: Homeodomain-interacting protein kinase 2 (Homo sapiens) (UniProt Q9H2X6); assay: Inhibition of human recombinant HIPK2 at 500 nM related to control ULK1
[5] = biological target: Bone morphogenetic protein receptor type-1B (Homo sapiens) (UniProt O00238); assay: Inhibition of human recombinant BMPR1B at 15 nM related to control ULK1
Bone morphogenetic protein receptor type-1B (Homo sapiens), sequence (O00238 whole entry): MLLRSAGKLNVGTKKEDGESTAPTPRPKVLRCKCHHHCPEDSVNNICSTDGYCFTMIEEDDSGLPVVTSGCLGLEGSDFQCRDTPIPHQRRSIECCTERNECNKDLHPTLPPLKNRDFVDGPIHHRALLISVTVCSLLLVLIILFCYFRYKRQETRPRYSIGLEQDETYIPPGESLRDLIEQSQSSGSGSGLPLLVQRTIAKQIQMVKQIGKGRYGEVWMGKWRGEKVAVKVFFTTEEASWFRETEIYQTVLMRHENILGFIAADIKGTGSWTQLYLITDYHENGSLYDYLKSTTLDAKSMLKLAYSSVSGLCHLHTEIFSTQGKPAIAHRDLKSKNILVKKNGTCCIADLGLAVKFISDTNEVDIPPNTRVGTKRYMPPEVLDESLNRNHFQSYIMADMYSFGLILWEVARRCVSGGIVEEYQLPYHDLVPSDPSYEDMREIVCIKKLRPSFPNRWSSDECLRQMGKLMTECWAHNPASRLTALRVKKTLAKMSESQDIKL

[6] = biological target: Tyrosine-protein kinase Fer (Homo sapiens) (UniProt P16591); assay: Inhibition of human recombinant FER at 15 nM in presence of ATP by radiometric assay relative to control
Tyrosine-protein kinase Fer (Homo sapiens), sequence (P16591 whole entry, looked up): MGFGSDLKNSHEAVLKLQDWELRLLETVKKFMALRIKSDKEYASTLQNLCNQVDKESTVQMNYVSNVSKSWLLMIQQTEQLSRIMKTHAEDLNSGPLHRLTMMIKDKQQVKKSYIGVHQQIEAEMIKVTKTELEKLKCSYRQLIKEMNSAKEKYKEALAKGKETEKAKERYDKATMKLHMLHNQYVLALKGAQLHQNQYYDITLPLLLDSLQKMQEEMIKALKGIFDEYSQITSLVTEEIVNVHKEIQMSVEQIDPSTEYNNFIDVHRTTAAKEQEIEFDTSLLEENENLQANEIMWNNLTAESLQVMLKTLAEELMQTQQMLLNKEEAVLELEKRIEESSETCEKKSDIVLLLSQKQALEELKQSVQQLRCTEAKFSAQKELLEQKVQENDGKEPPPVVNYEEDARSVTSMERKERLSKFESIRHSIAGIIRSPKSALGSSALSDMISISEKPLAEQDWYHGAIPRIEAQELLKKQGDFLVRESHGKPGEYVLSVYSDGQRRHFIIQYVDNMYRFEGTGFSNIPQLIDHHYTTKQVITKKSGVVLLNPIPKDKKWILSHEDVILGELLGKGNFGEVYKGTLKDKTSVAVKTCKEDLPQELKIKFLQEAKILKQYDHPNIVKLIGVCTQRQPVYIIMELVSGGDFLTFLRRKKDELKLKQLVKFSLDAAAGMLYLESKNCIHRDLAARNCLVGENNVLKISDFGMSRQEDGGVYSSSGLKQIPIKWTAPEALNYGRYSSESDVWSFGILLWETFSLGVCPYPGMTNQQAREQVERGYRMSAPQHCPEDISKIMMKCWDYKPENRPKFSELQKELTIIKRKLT

[7] = biological target: Serine/threonine-protein kinase SIK2 (Homo sapiens) (UniProt Q9H0K1); assay: Inhibition of human recombinant QIK at 15 nM in presence of ATP by radiometric assay relative to control
Serine/threonine-protein kinase SIK2 (Homo sapiens), sequence (Q9H0K1 whole entry, looked up): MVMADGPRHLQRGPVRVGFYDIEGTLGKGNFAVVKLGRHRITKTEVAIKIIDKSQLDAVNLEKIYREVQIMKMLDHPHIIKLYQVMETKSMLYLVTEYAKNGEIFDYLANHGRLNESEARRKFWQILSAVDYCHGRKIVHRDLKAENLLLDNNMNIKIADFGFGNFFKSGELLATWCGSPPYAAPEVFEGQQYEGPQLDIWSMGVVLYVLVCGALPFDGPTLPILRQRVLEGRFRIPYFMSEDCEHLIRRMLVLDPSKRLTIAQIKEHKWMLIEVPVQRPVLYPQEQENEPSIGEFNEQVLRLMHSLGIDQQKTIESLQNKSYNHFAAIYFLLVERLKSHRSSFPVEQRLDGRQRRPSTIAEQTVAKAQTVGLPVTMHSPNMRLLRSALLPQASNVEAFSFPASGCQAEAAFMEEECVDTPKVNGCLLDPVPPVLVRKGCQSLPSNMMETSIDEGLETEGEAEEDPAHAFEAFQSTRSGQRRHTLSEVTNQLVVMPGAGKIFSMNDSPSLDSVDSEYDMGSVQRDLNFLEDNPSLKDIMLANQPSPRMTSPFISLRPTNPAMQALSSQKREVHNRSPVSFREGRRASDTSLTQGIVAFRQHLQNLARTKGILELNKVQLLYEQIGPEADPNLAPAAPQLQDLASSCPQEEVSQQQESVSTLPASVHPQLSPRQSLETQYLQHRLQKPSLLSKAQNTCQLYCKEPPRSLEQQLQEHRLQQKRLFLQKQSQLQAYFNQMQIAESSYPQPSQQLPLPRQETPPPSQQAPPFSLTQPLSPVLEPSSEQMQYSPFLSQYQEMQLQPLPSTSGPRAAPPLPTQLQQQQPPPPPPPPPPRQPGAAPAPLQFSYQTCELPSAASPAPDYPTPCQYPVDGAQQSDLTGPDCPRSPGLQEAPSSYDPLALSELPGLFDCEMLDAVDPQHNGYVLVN

[8] = biological target: Ribosomal protein S6 kinase alpha-4 (Homo sapiens) (UniProt O75676); assay: Inhibition of human recombinant MSK2 at 40 nM related to control ULK1
Ribosomal protein S6 kinase alpha-4 (Homo sapiens), sequence (O75676 whole entry, looked up): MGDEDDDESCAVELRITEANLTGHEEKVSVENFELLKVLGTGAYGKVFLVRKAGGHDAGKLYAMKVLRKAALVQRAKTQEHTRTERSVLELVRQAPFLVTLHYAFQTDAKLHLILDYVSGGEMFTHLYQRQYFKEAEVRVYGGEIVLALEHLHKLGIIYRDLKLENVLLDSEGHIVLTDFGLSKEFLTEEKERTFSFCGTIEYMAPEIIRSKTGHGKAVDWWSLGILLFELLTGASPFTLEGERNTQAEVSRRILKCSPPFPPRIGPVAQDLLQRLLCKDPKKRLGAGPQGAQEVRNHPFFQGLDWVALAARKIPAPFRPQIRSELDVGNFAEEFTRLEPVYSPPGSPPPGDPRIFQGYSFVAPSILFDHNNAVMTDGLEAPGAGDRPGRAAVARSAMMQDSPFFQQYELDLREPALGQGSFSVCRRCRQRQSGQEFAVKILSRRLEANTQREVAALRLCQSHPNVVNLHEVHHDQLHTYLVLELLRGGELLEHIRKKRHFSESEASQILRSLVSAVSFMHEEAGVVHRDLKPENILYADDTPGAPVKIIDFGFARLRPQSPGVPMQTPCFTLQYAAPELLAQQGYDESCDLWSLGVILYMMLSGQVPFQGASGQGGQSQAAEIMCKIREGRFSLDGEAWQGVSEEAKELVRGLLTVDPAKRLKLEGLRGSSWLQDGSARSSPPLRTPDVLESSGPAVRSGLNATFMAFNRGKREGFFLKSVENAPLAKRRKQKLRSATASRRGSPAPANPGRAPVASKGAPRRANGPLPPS

[9] = biological target: T2, Tyrosine-protein kinase receptor TYRO3 (Homo sapiens) (UniProt Q06418); assay: Inhibition of human recombinant TYRO3 at 40 nM related to control ULK1
T2 sequence (whole entry): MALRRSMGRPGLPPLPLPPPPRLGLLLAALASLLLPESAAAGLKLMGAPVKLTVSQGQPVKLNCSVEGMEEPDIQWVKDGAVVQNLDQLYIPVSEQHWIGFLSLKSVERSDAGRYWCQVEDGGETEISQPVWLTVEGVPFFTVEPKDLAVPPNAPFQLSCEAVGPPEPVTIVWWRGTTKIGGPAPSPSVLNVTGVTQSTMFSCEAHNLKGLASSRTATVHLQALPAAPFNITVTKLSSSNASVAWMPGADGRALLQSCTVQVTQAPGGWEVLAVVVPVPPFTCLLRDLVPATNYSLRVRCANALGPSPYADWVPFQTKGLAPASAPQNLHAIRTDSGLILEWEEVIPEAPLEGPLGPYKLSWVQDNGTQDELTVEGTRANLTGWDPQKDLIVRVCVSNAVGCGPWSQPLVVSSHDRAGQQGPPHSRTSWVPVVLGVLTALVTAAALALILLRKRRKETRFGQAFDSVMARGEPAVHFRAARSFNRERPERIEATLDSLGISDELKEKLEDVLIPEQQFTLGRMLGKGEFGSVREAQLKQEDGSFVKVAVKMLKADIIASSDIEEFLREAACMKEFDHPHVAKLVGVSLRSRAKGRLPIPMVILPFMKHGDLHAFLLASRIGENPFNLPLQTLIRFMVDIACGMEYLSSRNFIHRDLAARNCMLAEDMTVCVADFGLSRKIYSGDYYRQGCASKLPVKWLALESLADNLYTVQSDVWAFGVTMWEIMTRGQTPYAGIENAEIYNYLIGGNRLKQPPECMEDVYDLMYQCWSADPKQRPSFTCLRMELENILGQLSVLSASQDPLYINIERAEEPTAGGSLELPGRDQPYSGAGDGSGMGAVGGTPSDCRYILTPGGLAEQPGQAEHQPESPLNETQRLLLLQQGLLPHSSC

Fibroblast growth factor receptor 3 (Homo sapiens), sequence (P22607 23-806 limits assumed): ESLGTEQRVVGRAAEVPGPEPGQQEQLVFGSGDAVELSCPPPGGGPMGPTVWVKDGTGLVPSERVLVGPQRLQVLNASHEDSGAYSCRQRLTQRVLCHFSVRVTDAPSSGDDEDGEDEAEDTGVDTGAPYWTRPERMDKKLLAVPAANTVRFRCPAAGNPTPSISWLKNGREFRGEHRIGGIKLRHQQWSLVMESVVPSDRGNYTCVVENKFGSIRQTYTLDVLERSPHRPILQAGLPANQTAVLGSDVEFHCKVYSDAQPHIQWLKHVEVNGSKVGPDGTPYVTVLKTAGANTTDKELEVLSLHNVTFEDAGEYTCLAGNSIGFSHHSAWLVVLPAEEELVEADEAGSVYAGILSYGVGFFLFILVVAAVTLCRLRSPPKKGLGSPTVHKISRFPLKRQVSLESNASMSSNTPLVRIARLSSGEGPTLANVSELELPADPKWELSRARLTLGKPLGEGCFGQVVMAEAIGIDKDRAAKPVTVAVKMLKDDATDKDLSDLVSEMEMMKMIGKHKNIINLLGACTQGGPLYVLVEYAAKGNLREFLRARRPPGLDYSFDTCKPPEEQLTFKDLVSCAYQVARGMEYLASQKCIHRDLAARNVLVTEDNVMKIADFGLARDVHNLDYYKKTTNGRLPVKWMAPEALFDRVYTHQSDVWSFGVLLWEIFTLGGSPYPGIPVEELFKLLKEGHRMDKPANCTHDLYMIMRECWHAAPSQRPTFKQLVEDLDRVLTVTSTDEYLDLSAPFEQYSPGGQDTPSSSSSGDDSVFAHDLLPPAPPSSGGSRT

fold change (FC) [1]: 0.57
inhibition [2]: 0%
inhibition [3]: 10%
fold change (FC) [4]: 0
Structure (SMILES): CNC(=O)c1ccccc1Oc1nc(Nc2cc(OC)c(OC)c(OC)c2)ncc1Br

fold change (FC) [5]: 0.27
inhibition [6]: 0%
inhibition [7]: 90%
Structure (SMILES): CC(C)[C@H](NC(=O)c1cc(-c2cnn3cc(-c4ccc(OCCN5CCCCC5)cc4)cnc23)cs1)C(F)(F)F

fold change (FC) [8]: 0
fold change (FC) [9]: 0
Structure (SMILES): O=C(N[C@@H](C1CC1)C(F)(F)F)c1cc(-c2cnn3cc(-c4ccc(F)cc4)cnc23)cs1
